{"source": "ChEMBL document CHEMBL1201862", "about": "“PubChem BioAssay data set” (2004)", "key": {"BJ [1]": {"system": "BJ", "test": "cytotoxicity toward BJ-TERT-LT-ST fibroblasts, dose response, cell-based, RAS-independent, luminescence (AID 1935);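 also: BJ fibroblasts immortalized with TERT plus LT and ST oncogenes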", "format": "functional", "conditions": "Homo sapiens"}, "BJ [2]": {"system": "BJ", "test": "cells", "format": "functional, cell-based", "conditions": "Homo sapiens"}, "Streptokinase A": {"molecular_target": "T1, Streptokinase A (Streptococcus pyogenes serotype M1, UniProt P10520)", "T1 sequence (P10520 whole entry)": "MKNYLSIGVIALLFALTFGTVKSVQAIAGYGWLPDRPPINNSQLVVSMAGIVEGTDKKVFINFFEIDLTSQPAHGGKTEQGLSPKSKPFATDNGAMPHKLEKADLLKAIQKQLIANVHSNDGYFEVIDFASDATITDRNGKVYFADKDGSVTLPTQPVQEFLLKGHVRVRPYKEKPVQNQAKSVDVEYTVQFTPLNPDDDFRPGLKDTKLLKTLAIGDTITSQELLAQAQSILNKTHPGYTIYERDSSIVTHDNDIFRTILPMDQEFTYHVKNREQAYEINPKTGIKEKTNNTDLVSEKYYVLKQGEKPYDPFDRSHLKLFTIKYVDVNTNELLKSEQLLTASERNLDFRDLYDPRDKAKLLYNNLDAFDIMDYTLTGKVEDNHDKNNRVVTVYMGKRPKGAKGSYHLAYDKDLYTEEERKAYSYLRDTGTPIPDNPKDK", "test": "S. pyogenes streptokinase expression inhibitors, potency, dose response, plasminogen activation absorbance, OD405 (AID 1914);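 also: secreted streptokinase activity via plasminogen activation per viability signal from cell pellet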", "format": "functional, Streptococcus pyogenes M1 GAS"}, "[3]": {"test": "ZM109 Env clade C HIV-1 fusion inhibitors, dose response, HeLa effector, CEM target cells, luciferase, cherry-pick (AID 652058)", "format": "functional, cell-based"}, "[4]": {"test": "CEM21 lymphoblast cell cytotoxicity, dose response, cytotoxicity control for viral fusion inhibitor project, CellTiter-Glo luminescence, cherry-picked (AID 652042);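 also: potency for signal decrease meaning cytotoxicity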", "format": "functional, cell-based"}, "Protein RecA": {"molecular_target": "T2, Protein RecA (Mycobacterium tuberculosis, UniProt P9WHJ3)", "T2 sequence (P9WHJ3 whole entry)": "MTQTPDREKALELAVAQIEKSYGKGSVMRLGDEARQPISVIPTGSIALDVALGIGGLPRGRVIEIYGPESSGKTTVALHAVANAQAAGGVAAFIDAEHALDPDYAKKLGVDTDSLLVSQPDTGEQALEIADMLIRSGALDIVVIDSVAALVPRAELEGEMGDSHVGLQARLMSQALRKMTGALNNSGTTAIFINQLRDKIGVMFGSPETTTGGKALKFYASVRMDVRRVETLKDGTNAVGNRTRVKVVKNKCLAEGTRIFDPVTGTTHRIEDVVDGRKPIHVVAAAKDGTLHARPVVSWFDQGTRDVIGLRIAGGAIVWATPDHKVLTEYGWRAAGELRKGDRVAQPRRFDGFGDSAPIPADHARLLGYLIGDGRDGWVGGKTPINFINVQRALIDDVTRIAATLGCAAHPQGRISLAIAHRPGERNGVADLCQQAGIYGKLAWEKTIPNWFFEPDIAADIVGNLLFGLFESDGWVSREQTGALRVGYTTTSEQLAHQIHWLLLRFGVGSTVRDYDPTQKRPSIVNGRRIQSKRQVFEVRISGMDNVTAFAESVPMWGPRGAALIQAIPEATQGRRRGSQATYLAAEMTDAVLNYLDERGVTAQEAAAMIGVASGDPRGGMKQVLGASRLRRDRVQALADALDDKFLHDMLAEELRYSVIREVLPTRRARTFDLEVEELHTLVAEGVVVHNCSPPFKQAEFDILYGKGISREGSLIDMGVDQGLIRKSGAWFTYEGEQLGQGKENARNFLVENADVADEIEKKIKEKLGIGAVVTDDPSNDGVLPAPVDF", "test": "Fluorescence Cell-Free Homogeneous Dose Retest to Identify Inhibitors of RecA-Intein Splicing Activity. [Related pubchem assays (depositor defined):AID2097, AID2223, AID489010, AID492950]", "format": "functional"}, "cells": {"test": "cells", "format": "functional"}, "[5]": {"molecular_target": "T3, Serine/threonine-protein phosphatase (Candida dubliniensis (strain CD36 / CBS 7987 / NCPF 3949 / NRRLY-17841) (Yeast), UniProt B9W6M3)", "T3 sequence (B9W6M3 whole entry)": "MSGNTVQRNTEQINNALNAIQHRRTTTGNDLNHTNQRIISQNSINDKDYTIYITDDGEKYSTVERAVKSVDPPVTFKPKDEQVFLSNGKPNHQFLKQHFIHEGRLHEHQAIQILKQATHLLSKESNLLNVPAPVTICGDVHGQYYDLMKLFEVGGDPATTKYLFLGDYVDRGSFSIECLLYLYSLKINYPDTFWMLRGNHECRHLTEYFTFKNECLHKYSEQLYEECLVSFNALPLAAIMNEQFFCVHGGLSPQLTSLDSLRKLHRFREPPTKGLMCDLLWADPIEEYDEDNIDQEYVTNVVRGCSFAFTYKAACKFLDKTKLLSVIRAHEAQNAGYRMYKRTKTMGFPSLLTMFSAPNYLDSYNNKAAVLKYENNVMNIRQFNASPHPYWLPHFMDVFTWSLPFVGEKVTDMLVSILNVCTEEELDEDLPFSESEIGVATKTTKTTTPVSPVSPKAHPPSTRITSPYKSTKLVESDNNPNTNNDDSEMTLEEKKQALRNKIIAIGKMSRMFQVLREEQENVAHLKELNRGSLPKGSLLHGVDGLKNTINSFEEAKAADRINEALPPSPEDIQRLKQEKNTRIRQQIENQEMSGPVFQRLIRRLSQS", "test": "calcineurin pathway inhibitors in yeast reporter, dose response, S. cerevisiae, CDRE-lacZ, luminescence, secondary (AID 2388);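 also: yeast reporter cells carrying a calcineurin-responsive lacZ construct stimulated with calcium chloride; luminescent beta-galactosidase reporter signal in whole cells rather than isolated phosphatase activity; potency for inhibition where a drop in reporter signal means calcineurin blockade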", "format": "functional, cell-based"}, "[6]": {"molecular_target": "Sphingosine 1-phosphate receptor 1 (Homo sapiens, UniProt P21453)", "sequence (P21453 whole entry)": "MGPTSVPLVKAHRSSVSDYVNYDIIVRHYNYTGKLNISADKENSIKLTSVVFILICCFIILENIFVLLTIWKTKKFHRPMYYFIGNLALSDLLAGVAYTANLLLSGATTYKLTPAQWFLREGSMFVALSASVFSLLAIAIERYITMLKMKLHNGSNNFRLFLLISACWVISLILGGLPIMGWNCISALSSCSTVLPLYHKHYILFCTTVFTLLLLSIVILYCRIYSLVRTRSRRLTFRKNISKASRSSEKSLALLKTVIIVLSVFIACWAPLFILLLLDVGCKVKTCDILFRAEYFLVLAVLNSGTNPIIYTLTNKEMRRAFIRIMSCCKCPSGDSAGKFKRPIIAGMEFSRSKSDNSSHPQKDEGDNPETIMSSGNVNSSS", "format": "functional"}}, "note": "Activity calls are given as the source filed them. Rule as the data show it, for most assays here: actives have a measured EC50 and inactives only a lower limit.", "data": [{"molecule": "COc1cccc(/C=N/Nc2ccc([N+](=O)[O-])cn2)c1O", "values": [{"measurement": "EC50", "setting": "BJ [1]", "value": "4.96 µM (inconclusive)"}, {"measurement": "EC50", "setting": "BJ [2]", "value": "9.14 µM (inconclusive)"}]}, {"molecule": "CCc1ccc(S(=O)(=O)/N=C2\\C=C(Nc3ccc(C(=O)O)cc3)C(=O)c3ccccc32)cc1", "values": [{"measurement": "EC50", "setting": "Streptokinase A", "value": "> 150 µM (not active)"}, {"measurement": "AC50", "setting": "[3]", "value": "6.74 µM (active)"}, {"measurement": "AC50", "setting": "[4]", "value": "6.53 µM (active)"}, {"measurement": "EC50", "setting": "Protein RecA", "value": "0.124 µM (active)"}]}, {"molecule": "Oc1c(C(c2ccccc2Cl)N2CCCC2)ccc2cccnc12", "note": "(centres undefined)", "values": [{"measurement": "IC50", "setting": "cells", "value": "13.2 µM (active)"}, {"measurement": "EC50", "setting": "[5]", "value": "> 180 µM (inactive)"}, {"measurement": "IC50", "setting": "[6]", "value": "5.93 µM (active)"}]}]}
